Reference: patent EP3900788A1, “NON-PRODUCTIVE ANGIOGENESIS INHIBITOR FOR USE IN THE TREATMENT OF ALZHEIMER'S DISEASE” (Consejo Superior de Investigaciones Científicas (CSIC), priority 2020, dated 2021)

Test system: APP751SL/+ mice
Test: Sorafenib treatment of AD mice: angiogenic cell density and Aβ plaques (Thio-S staining) in brain
Assay type: in vivo
Settings: 7-month-old APP751SL/+ mice, Sorafenib treatment 1 month vs vehicle

**Q.** `CNC(=O)c1cc(Oc2ccc(NC(=O)Nc3ccc(Cl)c(C(F)(F)F)c3)cc2)ccn1` [Sorafenib] was tested. Which Aβ plaque load (Thio-S staining of brain) did it give?
**A.** The Aβ plaque load was “significantly reduced”.

**Q.** What about the “mean Aβ plaque area” value (Thio-S staining of brain) of the same compound?
**A.** Its value is “significantly reduced”.

**Q.** And the “apparition of Iαvβ3+ cells in the brain (Iαvβ3+ cell density)” value (p < 0.001)?
**A.** The value was “strongly reduced”.
